Legend:
[1] = previously shown (Baron et al. 1990); cited from earlier work
[2] = tested on: fibrin; test: Fibrin-SEPHAROSE affinity chromatography (binding and elution); set-up: species or system bovine
Description: Bovine fibrinogen was cross-linked to CNBr-activated SEPHAROSE™ (5 mg/ml beads) according to the manufacturer's instructions. Coupled fibrinogen was subsequently converted to fibrin by incubation with human thrombin to a final concentration of 5 NIH units/ml and 100 K.I. (kallikrein inhibitory) units/ml of aprotinin (in 0.05M Tris-HCI buffer, pH 7.6, containing 0.1M NaCl and 0.01M EDTA) for three hours, at room temperature (Gold, et al. (1983) Biochemistry 22, 4113-4119).
1.0M NaCl in 0.05M tris buffer, pH 8.0.
The fibrin-binding activity of the proteolytically derived 25.9 kDa fragment of Fn was determined by its ability to bind to a fibrin affinity matrix. […] FBB was used to equilibrate and wash the column. Following warming of the column to 22° C., the column was washed with FBB until absorbance at 280 nm (A280) was less than 0.01, and bound protein eluted with 0.05M Tris-HCl, 0.5M NaCl, 6M urea buffer, pH 7.6.
The module (500 μg/1.0 ml) was incubated for 4 hours (while rotating) at 4° C. in the presence of 1.0 ml fibrin-SEPHAROSE™ (5 mg fibrin/ml SEPHAROSE™ beads) equilibrated in […] Tris-HCl, 0.1M NaCl buffer, pH 7.6.
The 11 KDa peptide (50 μg/0.206 ml) was radiolabeled using the IODO-BEAD method (Pierce Chemical). The peptide was added to one IODO-BEAD in the presence of 100 μCi ^125 I (17.4 Ci/mg, New England Nuclear) and incubated on ice for 10 minutes. The bead was removed and the free ^125 I removed by chromatography through a PD10 column containing SEPHADEX™ G-25 (Pharmacia). […] The radioiodinated 11 kDa fibrin-binding peptide (500 μg/1.5 ml) was combined with 1 ml of fibrin-SEPHAROSE™ (5 mg fibrin/ml beads) equilibrated with 50 mM Tris-HCl, 0.1M NaCl buffer, pH 7.6, and rotated for 4 hours, at 4° C. The mixture was poured onto a disposable column (0.6 cm×8.0) and the unbound protein washed through. The column was equilibrated to room temperature and washed with the equilibration buffer.

[3] = tested on: fibrin
Description: Since the anti-Fn detection system described for the ELISA above could not be used in Fn competition assays employing the intact Fn molecule or the 25.8 kDa proteolytic fragment, purified Fn was biotinylated using water soluble NHS-LC-Biotin (Pierce Chemm. Co.; according to the manufacturer's instructions) and binding to fibrin detected by alkaline phosphatase conjugated streptavidin (diluted 1/500 in FBBT/BSA) for 1 hour at 22° C., followed by the addition of p-nitrophenyl phosphate, as described above. To ensure that the biotinylation of the Fn had not affected its ability to bind to fibrin, fibrin-binding activity was tested by incubating increasing concentrations of biotinylated Fn (10-300 ng/0.1 ml FBB) with the fibrin-coated wells (200 ng) and detected (see FIG. 28A) using alkaline phosphatase-conjugated streptavidin and the reaction developed as described for Direct Elisa.
To compare the relative fibrin-binding affinities of the ^4 F1.^5 F1 recombinant module pair and the 25.9 kDa proteolytic fragment (^1 F1-^5 F1) with that of the native Fn molecule, these purified proteins were competed with biotinylated plasma Fn for binding to fibrin coated wells and the extent of inhibition of binding assessed by incubation with alkaline phosphatase-conjugated streptavidin. […] Biotinylated Fn (100 ng/0.1 ml FBB: 2.3 nM) was combined with increasing concentrations (0-10 μM) of either unlabeled Fn, the 25.9 kDa proteolytic fragment, or the separate ^4 F1.^5 F1, and ^10 F1 recombinant modules and incubated with the fibrin-coated microtiter wells for 1 hour at 22° C. […] Bound biotinylated Fn was quantitated as described above.

[4] = Heparin affinity chromatography; format: binding; settings: NaCl gradient in 0.05M tris buffer, pH 8.0
Source text: Upon warming the column to room temperature, a 25.9 kDa fragment was eluted with FBB (Peak a, FIG. 3). […] 1.0M NaCl in 0.05M tris buffer, pH 8.0. The yield of the 11 kDa fragment from the intact molecule was approximately 5% (w/w). This is the same as the theoretical yield. The extinction coefficient has been determined to be approximately 4.5, based on a comparison between A280 and protein concentration determination by Coomassie Protein Assay (Pierce Chemical Co.).

25.9 kDa fragment: 25.9 kDa N-terminal proteolytic fibrin-binding fragment of fibronectin (^1 F1-^5 F1), residues 17-246 of SEQ ID NO:1
heparin-binding activity, affinity [1]: intermediate | % of protein applied eluted on warming the column to 22° C. (room temperature) ([2]; FBB buffer): approximately 8% | % of protein applied eluted with 0.5M NaCl, 6.0M urea buffer ([2]; after warming to 22° C.): approximately 17% | % of protein applied retained by fibrin-SEPHAROSE ([2]; binding at 4° C., 500 μg applied): 25% | % of protein applied retained by fibrin-Sepharose with increasing amounts applied ([2]; increasing amounts applied to a fixed volume of fibrin-Sepharose): 25% | relative affinity for fibrin (from elution conditions) ([2]; temperature change vs denaturing conditions (6M urea or 50% ethylene glycol) for elution): lower affinity | fold higher concentration over intact Fn needed for 50% inhibition [3]: 7.5 fold | maximal inhibition of biotinylated Fn binding to fibrin ([3]; 10 μM of protein (5,000 molar excess)): 75% | IC50 ([3]; read-out: IC50, 50% inhibition of binding of biotinylated Fn to fibrin, biotinylated Fn 2.3 nM, 200 ng fibrin, 1 hour 22° C.): 150 nM | Ki ([3]; read-out: KI estimated from IC50 (Cheng and Prussoff)): 145 nM | NaCl concentration at elution from heparin affinity chromatography [4]: 0.25 M
